Here are results for eleven compounds from patent publication US10640468B2, “1-(4-(2-((1-(3,4-difluorophenyl)-1H-pyrazol-3-Yl)methoxy)ethyl)piperazin-1- Yl)ethanone salts” (ESTEVE PHARMACEUTICALS S.A., priority 2015, dated 2020).

Where “and” joins values, the source holds several entries; their conditions need not be identical. Equal entries are not always repeated. Structures can show the parent of a compound that is named as a salt.

Data set [1] can be described thus: Pharmacokinetics after single oral administration to male Wistar rat. Type of data set: in vivo. How it is done: The pharmacokinetics of Example 1 and 2 were tested using the following protocol:
Male Wistar rats weighing 250 to 300 g (±20) supplied by Harlan were used. Water and food was available ad libitum throughout the study.
Administration and Sample Collection
Two rats (R1 and R2) were used in the pharmacokinetic oral studies.
A single dose of tested compound was administered by oral gavage [10 mg/kg as free base (Example 0)] in 0.5% hydroxypropyl methylcellulose (1 mg/ml). From each rat, serial blood samples were collected at 15 and 30 min, 1, 2, 3, 5, 7 and 24 h.
Blood was collected from the saphenous veins into heparinized tubes. Plasma was obtained by blood centrifugation at 4° C. and 2280×g for 10 min and kept at −80° C. until analysis.
Tested compound concentration in plasma samples was determined by least-squares linear regression using a ten-point calibration curve. The calibration curve was prepared in blank plasma from a working solution of 1 mg/ml in DMSO.
Samples were thawed at room temperature on the day of analysis. After plasma protein precipitation of samples and calibration standards with acetonitrile (1:4.3; v/v), the mixture was vortexed and centrifuged (4° C. and 16090×g for 10 min).
Tested compound plasma concentrations were determined by high performance liquid chromatography-triple quadrupole mass spectrometry (HPLC-MS/MS) through the following method:
Column: Atlantis® T3 column (2.1×100 mm, 3 μm) (Waters).
Mobile phase: A: 0.0155% Formic water • B: 0.0155% Formic Acetonitrile
Autosampler wash: Solvent 1:Acetonitrile • Solvent 2: 5% Acetonitrile+95% Water
Standard pharmacokinetic parameters, such as area under the curve (AUC), peak plasma concentration (Cmax), time to peak concentration (tmax), oral bioavailability (F), total plasma clearance (Cl), volume of distribution at steady-state (Vss), mean residence time (MRT) and terminal half-life (t1/2), were determined by non-compartmental analysis of the plasma concentration-time curves (Phoenix v. 6.2.1.51, Pharsight, C A).

Data set [2] in a line: Thermodynamic solubility at pH 7.4. Type of data set: physicochemical. As to conditions: maleate. As for the experimental part:
General protocol for thermodynamic solubility at pH 7.4 and pH 2 are described. • A) Thermodynamic Solubility at pH 7.4
Phosphate buffer at pH 7.4 (25 mM) was prepared as follows:
A solution 25 mM of Na2HPO4.12H2O (for 1 L of water, weight 8.96 g) was prepared
A solution 25 mM de KH2PO4 (for 1 L of water weight 3.4 g) was prepared.
Disodium phosphate solution (812 mL) and potassium phosphate (182 mL) solution were mixed and pH checked to be 7.4.
Equipment • Precision analytical balance Mettler Toledo AT20. • Analytical balance Mettler Toledo PJ300. • Liquid chromatograph Waters Alliance 2695. • Stirrer Thermomixer Control of Eppendorf a 25° C. y 1250 rpm • pHmeter with combined semi-micro electrode.
Around 4 mg of compound in an HPLC vial (by duplicate) was dissolved in 1 mL of buffer solution. After stirring in Thermomixer Comfort system for 24 hours at 25° C., in order to achieve thermodynamic equilibrium, solution was centrifuged at 3000 rpm for 15 minutes.
The resulting upper layer was collected with a glass pipette and transferred to the HPLC vials in order to inject them (10 μL) directly to the HPLC instrument.
Standards were made in methanol to ensure overall compound solubility. Preparation of standard calibrators is illustrated below:
Sol.A: 4 mg in 1 mL methanol (4000 μg/mL)
Sol.B: 0.5 mL Sol.A to 5 mL with methanol (400 μg/mL)
Sol.C: 1 mL Sol.B to 10 mL with methanol (40 μg/mL)
Sol.D: 5 mL […] to 50 mL with methanol (4 μg/mL)
Sol.E: 4 mL Sol.D to 10 mL with methanol (1.6 μg/mL)
Calibration curve was created through 10 μL injection of standards, beginning with the more diluted standard. Blanks were also injected, for checking the absence of contamination.
10 μl of test substance were injected, by duplicate, and the average peak area interpolated in the calibration curve (see Tables Examples below).
Chromatographic Conditions • Column: XBridge C18 (or similar) 2.5 μm 4.6×50 mm • Temperature: 35° C. • Mobile phase: ACN/ammonium bicarbonate 10 mM. • Gradient: 0-3.5 min: from 15% CAN to 95% CAN • 3.5-5 min: 95% ACN • 5-6 min: 95 a 15% ACN • 6-8 min: 15% ACN • Flow: 1.5 mL/min • Detection: around the maximum UV wavelength. • B) Thermodynamic Solubility at pH 2

The conditions of data set [3]: acid; cited from earlier work.
Data set [4] is described as follows: Solubility study of Example 0 in solvents (volumes needed to dissolve the solid). The format is physicochemical. How it is done:
Previously a solubility study was performed with compound Example 0. The results are shown in Table 1 wherein number of volumes needed to dissolve the solid in the corresponding solvent at room temperature is shown. If at 50 volumes, dissolution was not observed at room temperature, mixture was heated to reflux temperature.

Data set [5] can be described thus: pKa of the free base compound. Type of data set: physicochemical.
Setting [6] is: animal 1, 10 mg/kg oral, maleate.
The mark [7] stands for this setting: animal 2, 10 mg/kg oral, maleate.
[8] abbreviates: mean of 2 rats, 10 mg/kg oral, listed as example 2, maleate, 10 mg/kg.
The mark [9] stands for this setting: mean of 2 rats, 10 mg/kg oral, maleate, 10 mg/kg.

`CC(=O)N1CCN(CCOCc2ccn(-c3ccc(F)c(F)c3)n2)CC1` [Example 2, maleate]: the AUC is 2227 ng·h/mL in data set [1] (setting [6]), 1768 ng·h/mL in data set [1] (setting [7]), roughly 2000 ng·h/mL in data set [1] (setting [8]) and 1997 ng·h/mL in data set [1] (setting [9]). In addition, the Cmax in data set [1] (setting [6]) was found to be 1.386 µg/mL; in data set [1] (setting [7]), 1.039 µg/mL. Besides, the t1/2 came out at 102 min in data set [1] (setting [6]) and 72 min in data set [1] (setting [7]). The F is 50% in data set [1] (animal 1, 10 mg/kg oral, mean AUC after i.v. administration used for calculation, maleate) and 40% in data set [1] (animal 2, 10 mg/kg oral, mean AUC after i.v. administration used for calculation, maleate). The tmax turned out to be 30 min in data set [1] (setting [7]), 22.8 min in data set [1] (setting [8]) and 24 min in data set [1] (setting [9]). Besides, the “t1/2 (terminal half-life)” value in data set [1] (setting [9]) came to 90 min. Also, in data set [1] (mean of 2 rats, 10 mg/kg oral, mean AUC after i.v. administration used for calculation, maleate, 10 mg/kg), the “F (oral bioavailability)” value is 45%. The Plasma concentration in data set [1] (rat R1, 0.5 h, 10 mg/kg oral, maleate, 10 mg/kg) is 1.251 µg/mL; in data set [1] (rat R1, 1 h, 10 mg/kg oral, maleate, 10 mg/kg), 0.907 µg/mL; in data set [1] (rat R1, 2 h, 10 mg/kg oral, maleate, 10 mg/kg) it was 0.289 µg/mL; in data set [1] (rat R1, 3 h, 10 mg/kg oral, maleate, 10 mg/kg) it was 0.157 µg/mL; in data set [1] (rat R1, 5 h, 10 mg/kg oral, maleate, 10 mg/kg), 0.045 µg/mL; in data set [1] (rat R1, 7 h, 10 mg/kg oral, maleate, 10 mg/kg), 0.041 µg/mL. For the same compound, the Plasma concentration in data set [1] (rat R2, 0.5 h, 10 mg/kg oral, maleate, 10 mg/kg) worked out at 1.039 µg/mL; in data set [1] (rat R2, 1 h, 10 mg/kg oral, maleate, 10 mg/kg), 0.639 µg/mL; in data set [1] (rat R2, 2 h, 10 mg/kg oral, maleate, 10 mg/kg) it was 0.317 µg/mL; in data set [1] (rat R2, 3 h, 10 mg/kg oral, maleate, 10 mg/kg) it was 0.095 µg/mL; in data set [1] (rat R2, 5 h, 10 mg/kg oral, maleate, 10 mg/kg) it was 0.075 µg/mL; in data set [1] (rat R2, 7 h, 10 mg/kg oral, maleate, 10 mg/kg), 0.013 µg/mL. Besides, the “Conc. Mean” value in data set [2] (pH 7.4, mean of 4 injections) turned out to be 4468.706 µg/mL. Moreover, the Conc. in data set [2] (pH 7.4, single HPLC injections of duplicate vials) was 4593.8 µg/mL and 4408.7 µg/mL and 4338.8 µg/mL and 4533.6 µg/mL.

`CCCCCCCCCC(=O)O` [Capric acid]: the pKa1 in data set [3] is listed as 4.9.

`CC(=O)N1CCN(CCOCc2ccn(-c3ccc(F)c(F)c3)n2)CC1` (as salt: maleate) [Example 2] showed a melting point of 160 to 162 °C.

Take `O=[N+]([O-])O` [Nitric acid]: the pKa1 result in data set [3] is “Strong”.

As for `O=S(=O)(O)c1ccccc1` [Benzensulphonic acid], the pKa1 in data set [3] is recorded as 0.7.

`CCS(=O)(=O)O` [Ethanesulfonic acid]: in data set [3], the pKa1 is recorded as 2.05.

For the compound `CC(=O)N1CCN(CCOCc2ccn(-c3ccc(F)c(F)c3)n2)CC1` [Example 0, 1-(4-(2-((1-(3,4-difluorophenyl)-1H-pyrazol-3-yl)methoxy)ethyl)piperazin-1-yl)ethanone], the “number of volumes needed to dissolve the solid” value in data set [4] (CH2Cl2, room temperature) is 3 volumes; in data set [4] (CH3CN, room temperature), 15 volumes; in data set [4] (EtOH, room temperature), 4 volumes; in data set [4] (H2O, room temperature, heated to reflux at 50 volumes, no dissolution observed) it was > 50^[1] volumes; in data set [4] (MIBK, room temperature), 17 volumes; in data set [4] (THF, room temperature) it was 4 volumes. This compound registered a pKa in data set [5] of 6.37.

Compound `CC(=O)N1CCN(CCOCc2ccn(-c3ccc(F)c(F)c3)n2)CC1` (as salt: hydrochloride) [Example 1] gave a melting point of 155 to 157 °C.

`Br` [Hydrobromic acid]: in data set [3], the pKa1 entry is “Strong”.

On to `CCCCCC(=O)O` [Caproic acid], for which the pKa1 in data set [3] is recorded as 4.88.

`CCCCCCCC(=O)O` [Caprylic acid]: the pKa1 in data set [3] is listed as 4.89.

One may read the AUC as concentration integrated over time. One may read the Cmax as the peak of the concentration-time curve. Usually melting point stands for the temperature, or range, at which the solid turns liquid. A word on the pKa: it is the pH at which an ionisable group is half protonated. A high value points to a weaker acid or stronger base.
